According to the supplement of paper PMC10307832:

Key:
Assay in all cases: relative viability (nuclei count vs DMSO), 5 days (fraction); higher = more cells survive
Alpelisib + Lapatinib = compound: Cc1nc(NC(=O)N2CCC[C@H]2C(N)=O)sc1-c1ccnc(C(C)(C)C(F)(F)F)c1 [Alpelisib] + CS(=O)(=O)CCNCc1ccc(-c2ccc3ncnc(Nc4ccc(OCc5cccc(F)c5)c(Cl)c4)c3c2)o1 [Lapatinib] (partner 2 µM)
Outline: (§1)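 Lung cancer cell lines in 1536-well plates got either a single drug or a fixed anchor-drug dose together with five library-drug doses (not always all listed) in √10 steps, by pin tool, on the day after seeding. Nuclei were counted after 5 days, and relative viability is the treated-to-vehicle ratio of nuclei counts. Values are medians of duplicate plates.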

OSI-027 + Bortezomib = compound: COc1cccc2cc(-c3nc([C@H]4CC[C@H](C(=O)O)CC4)n4ncnc(N)c34)[nH]c12 [OSI-027] + CC(C)C[C@H](NC(=O)[C@H](Cc1ccccc1)NC(=O)c1cnccn1)B(O)O [Bortezomib] (partner 0.002 µM)
Outline: as §1

Vemurafenib + Navitoclax = compound: CCCS(=O)(=O)Nc1ccc(F)c(C(=O)c2c[nH]c3ncc(-c4ccc(Cl)cc4)cc23)c1F [Vemurafenib] + CC1(C)CCC(c2ccc(Cl)cc2)=C(CN2CCN(c3ccc(C(=O)NS(=O)(=O)c4ccc(N[C@H](CCN5CCOCC5)CSc5ccccc5)c(S(=O)(=O)C(F)(F)F)c4)cc3)CC2)C1 [Navitoclax] (partner 0.5 µM)
Outline: as §1

OSI-027 + AZD7762 = compound: COc1cccc2cc(-c3nc([C@H]4CC[C@H](C(=O)O)CC4)n4ncnc(N)c34)[nH]c12 [OSI-027] + NC(=O)Nc1cc(-c2cccc(F)c2)sc1C(=O)N[C@H]1CCCNC1 [AZD7762] (partner 0.2 µM)
Outline: as §1

| Cell Line | relative viability (Alpelisib + Lapatinib; first compound 0.04 µM) | relative viability (Alpelisib + Lapatinib; first compound 0.1265 µM) | relative viability (Alpelisib + Lapatinib; first compound 0.4 µM) | relative viability (Alpelisib + Lapatinib; first compound 1.265 µM) | relative viability (Alpelisib + Lapatinib; first compound 4 µM) | relative viability (OSI-027 + Bortezomib; first compound 0.01 µM) | relative viability (OSI-027 + Bortezomib; first compound 0.03162 µM) | relative viability (OSI-027 + Bortezomib; first compound 0.1 µM) | relative viability (OSI-027 + Bortezomib; first compound 0.3162 µM) | relative viability (OSI-027 + Bortezomib; first compound 1 µM) | relative viability (Vemurafenib + Navitoclax; first compound 0.03162 µM) | relative viability (Vemurafenib + Navitoclax; first compound 0.1 µM) | relative viability (Vemurafenib + Navitoclax; first compound 0.3162 µM) | relative viability (Vemurafenib + Navitoclax; first compound 1 µM) | relative viability (OSI-027 + AZD7762; first compound 0.01 µM) | relative viability (OSI-027 + AZD7762; first compound 0.03162 µM) | relative viability (OSI-027 + AZD7762; first compound 0.1 µM) | relative viability (OSI-027 + AZD7762; first compound 0.3162 µM) | relative viability (OSI-027 + AZD7762; first compound 1 µM) |
| --- | --- | --- | --- | --- | --- | --- | --- | --- | --- | --- | --- | --- | --- | --- | --- | --- | --- | --- | --- |
| 201T | 1.02 | 0.988 | 1.02 | 1.01 | 0.945 | 1.14 | 1.15 | 1.07 | 1.12 | 1.1 | 1.16 | 1.26 | 1.2 | 1.14 | 0.562 | 0.691 | 0.585 | 0.472 | 0.511 |
| A549 | 0.915 | 0.857 | 0.866 | 0.637 | 0.53 |  |  |  |  |  | 1.09 | 1.29 | 1.31 | 1.16 |  |  |  |  |  |
| A-427 | 1.03 | 0.914 | 0.967 | 0.926 | 1.04 | 1.13 | 0.965 | 0.967 | 0.803 | 0.578 | 0.969 | 0.887 | 0.977 | 0.94 | 0.676 | 0.52 | 0.557 | 0.541 | 0.399 |
| ABC-1 | 0.943 | 0.988 | 1.17 | 0.706 | 0.717 | 0.284 | 0.366 | 0.331 | 0.405 | 0.27 |  |  |  |  | 0.886 | 0.764 | 0.728 | 0.555 | 0.602 |
| BEN | 0.715 | 0.618 | 0.88 | 0.688 | 0.708 | 0.653 | 0.83 | 0.488 | 0.379 | 0.389 | 0.0514 | 0.0623 | 0.0526 | 0.0536 | 0.698 | 0.604 | 0.435 | 0.464 | 0.463 |
| CAL-12T | 0.678 |  | 0.658 |  | 0.496 | 0.814 | 1.02 | 0.713 | 0.754 | 0.729 | 1.28 | 1.2 | 1.47 | 1.28 | 0.626 | 0.741 | 0.603 | 0.668 | 0.585 |
| COR-L23 | 1.03 | 0.896 | 1.14 | 0.781 | 0.606 | 1.16 | 0.923 | 1.07 | 1.13 | 0.298 | 0.841 | 0.988 | 0.76 | 0.953 |  |  |  |  |  |
| COR-L 105 | 0.338 | 0.391 | 0.364 | 0.287 | 0.337 | 0.682 | 0.716 | 0.779 | 0.572 | 0.428 | 0.647 |  | 0.815 | 0.841 |  |  |  |  |  |
| Calu-6 | 1.1 | 1.09 | 1.12 | 0.996 | 0.952 | 1.34 | 0.956 | 1 | 0.906 | 0.896 | 0.866 | 0.814 | 0.609 | 0.707 |  |  |  |  |  |
| ChaGo-K-1 |  |  |  |  |  | 0.987 | 1.17 | 0.554 | 0.838 | 0.762 | 0.949 | 0.809 |  | 0.958 | 0.912 | 0.902 | 0.936 | 0.836 | 0.756 |
| EBC-1 | 0.21 | 0.184 | 0.211 | 0.238 | 0.232 | 0.497 | 0.557 | 0.515 | 0.53 | 0.375 | 0.409 | 0.408 | 0.453 | 0.461 |  |  |  |  |  |
| EKVX | 0.195 | 0.34 | 0.184 | 0.174 | 0.175 | 1.03 | 0.942 | 1.11 | 0.972 | 0.649 | 0.898 |  | 1.03 | 0.847 | 0.694 | 0.726 | 0.666 | 0.692 | 0.562 |
| EMC-BAC-2 | 0.826 | 0.844 | 0.84 | 0.68 | 0.628 | 1.07 | 1.08 | 0.988 | 0.872 | 0.568 | 1.15 | 1.01 | 1.17 | 1.14 | 1.05 | 1.14 | 0.833 | 0.791 | 0.63 |
| EPLC-272H | 0.859 | 0.842 | 0.805 | 0.7 | 0.525 | 0.871 | 0.978 | 0.764 | 0.849 | 0.688 | 1.05 | 0.916 | 1.13 | 1.06 | 0.262 | 0.212 | 0.162 | 0.0961 | 0.124 |
| H3255 | 0.242 | 0.215 | 0.259 | 0.203 | 0.197 | 0.825 | 0.761 | 0.619 | 0.545 | 0.534 | 0.493 |  | 0.57 | 0.386 | 0.888 | 0.958 | 0.714 | 0.832 | 0.613 |
| IA-LM | 0.977 | 0.802 | 0.842 | 0.708 | 0.74 | 0.736 | 0.765 | 0.438 | 0.21 | 0.113 | 0.643 | 0.806 | 0.794 | 0.665 |  |  |  |  |  |
| LCLC-103H |  |  |  |  |  | 1.24 | 1.16 | 1.13 | 0.928 | 1 |  |  |  |  | 0.8 | 0.717 | 0.748 | 0.64 | 0.542 |
